Assay results taken from US20250243219A1, “MACROCYCLIC COMPOUNDS AND USES THEREOF” (Cypralis Limited, priority 2022, published 2025).
Where two headings read alike, the source gives them in different places.

What was measured:
cyclophilin A = cyclophilin A (Homo sapiens (Human), UniProt P62937); assay: Functional peptidyl prolyl isomerase (PPIase) spectrophotometric assay, cyclophilin A; type: biochemical; details: first value of CypA/D cell
Procedure, shortened: (§1)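 Cuvette-based UV/Vis assay of PPIase-catalysed cis-to-trans isomerisation of a peptide substrate. First-order rate constants fitted to absorbance, background rate subtracted. Ki derived from rate constant versus inhibitor concentration, typically 6-point curves in duplicate.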

cyclophilin D = cyclophilin D (Homo sapiens (Human), UniProt P30405); assay: Functional peptidyl prolyl isomerase (PPIase) spectrophotometric assay, cyclophilin D; type: biochemical; details: second value of CypA/D cell; read-out: Ki CypD
Procedure, shortened: as §1

[1] = test system: permeabilised HepG2 cells; assay: Calcium retention capacity (CRC) assay in permeabilised HepG2 cells (MPTP opening); type: cell-based, human; set-up: CRC [10 μM]: unit not given here; details: compound at 10 μM
Procedure, shortened: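 Digitonin-permeabilised HepG2 cells received trains of calcium pulses (typically 5 μM) monitored with Calcium Green-5N until buffering failed, marking permeability transition. Runs with and without compound; calcium retained at 10 μM compound expressed as ratio versus cyclosporin A positive control.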

pancreatic acinar cells = assay: Protection of pancreatic acinar cells against TLCS toxicity (propidium iodide uptake, FIG. 1); type: cell-based; details: propidium iodide uptake as measure of necrotic cells
Excerpt: FIG. 1 propidium iodide (PI) up-take as a measure of the number of dead pancreatic acinar cells (through necrosis) as a percentage against a number of treatments with Compound (2) and cyclosporin A and controls in an in-vitro model based on pancreatic acinar cells against the toxicity of the bile acid taurolithocholic acid-3-sulphate (TLCS);
WO 2021/115299 (Zuo) discloses compounds that protect against acute kidney injury caused by many different causes. The same compounds are disclosed in U.S. Pat. No. 6,583,265 (C-Chem AG) as cyclophilin inhibitors. There is no enzyme inhibiting, receptor binding or ion channel activity known for these compounds other than inhibition of cyclophilins. It can therefore be concluded that the compounds of the present invention, which are potent cyclophilin inhibitors but have no activity on other enzymes or receptors, have the same spectrum of properties.
FIG. 1 illustrates two sets of results.

[2] = Blood-brain barrier penetration, intravenous dosing; type: in vivo, rodents (mice or rats); details: 3 mg/kg intravenous
Experimental: (§2) Test compounds were administered to rodents (mice or rats) either orally, subcutaneously or intravenously. To determine blood or plasma concentrations blood samples were taken at different time points and analysed for the concentration of test compound by LC/MS. Brain concentrations were measured by sacrificing animals and LC/MS analysis of brain homogenate.
The results for Compounds (2), (19), (6) and (27) are summarised in Table 6 showing concentrations of the Compounds in blood plasma and the brain.

[3] = Pharmacokinetics in mice, subcutaneous administration; type: in vivo, mice (strain FVB/N); details: subcutaneous 10 mg/kg; for Tmax / Cmax / half-life: sc
Experimental: as §2, with “homogenate. FIG. 3 illustrates graphs for the concentration (ng/ml) Compound (2) in blood, blood plasma and in the brain at 30 minutes to 7 hours after the same dosage administered sub-cutaneously.” for “homogenate.”

[4] = test system: kainic acid treated NMRI mice; assay: Kainic acid model of epilepsy; type: in vivo, Male NMRI mice; details: 150 mg/kg for 3 consecutive days, kainic acid 45 mg/kg s.c., n=21
Experimental: Male NMRI mice (n=21) were given 150 mg/kg of Compound (2) (60% PEG400/water solution) for 3 consecutive days. 2 hours after the last dose the animals were given subcutaneously 45 mg/kg of kainic acid. Behaviour was monitored for 3 hours. On day 7 after receiving kainic acid the animals were sacrificed and brain analysed by immunohistochemistry for markers of neurodegeneration.

cyclophilin D, sequence (P30405 30-207, species assumed): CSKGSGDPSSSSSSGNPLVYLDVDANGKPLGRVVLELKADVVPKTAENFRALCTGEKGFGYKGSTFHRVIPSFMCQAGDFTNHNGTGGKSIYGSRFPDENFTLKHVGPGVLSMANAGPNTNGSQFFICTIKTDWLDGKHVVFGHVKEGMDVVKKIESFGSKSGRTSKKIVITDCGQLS
cyclophilin A, sequence (P62937 whole entry, species assumed): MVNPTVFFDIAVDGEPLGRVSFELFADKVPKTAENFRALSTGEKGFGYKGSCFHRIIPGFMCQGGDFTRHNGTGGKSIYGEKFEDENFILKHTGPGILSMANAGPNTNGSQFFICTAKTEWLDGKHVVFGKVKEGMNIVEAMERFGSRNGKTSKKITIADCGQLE

## CC(C)[C@@H]1OC(=O)C(C)(C)/C=C/c2ccc3ccc(nc3c2)N(C)NC(=O)[C@@H]2CCCN(N2)C(=O)[C@H](C)NC1=O [Compound (2)]
Cyclophilin A
  Ki: 5 nM
Cyclophilin D
  Ki: 17 nM
[1]; digitonin permeabilised HepG2 cells
  CRC [10 μM]: 26
[1]; normalised to cyclosporin A, value in brackets
  CRC [10 μM] (ratio vs CsA): 0.9875
Pancreatic acinar cells
  Protection of pancreatic acinar cells against toxicity of TLCS: protect pancreatic acinar cells against the toxicity
[2]
  Blood-brain barrier passage: passed the blood-brain barrier
[2]; brain, read-out: Brain concentration
  concentration at 30 min: 170 ng/mL
[2]; plasma, read-out: Plasma concentration
  concentration at 30 min: 222 ng/mL
[3]; FVB/N, mouse, brain and blood
  Kp: 0.9
[3]; FVB/N, mouse, brain, read-out: Tmax Brain
  Tmax: 2 h
[3]; FVB/N, mouse, plasma, read-out: Cmax Plasma
  Cmax: 1640 ng/mL
[3]; FVB/N, mouse, plasma, read-out: T1/2 Plasma (converted)
  half-life: 1.77 h
[3]; FVB/N, mouse, plasma, read-out: Tmax Plasma
  Tmax: 0.5 h
[3]; FVB/N, mouse, whole blood, read-out: Cmax Whole blood
  Cmax: 2640 ng/mL
[3]; FVB/N, mouse, whole blood, read-out: T1/2 Whole blood (converted)
  half-life: 3.17 h
[3]; FVB/N, mouse, whole blood, read-out: Tmax Whole blood
  Tmax: 0.5 h
[3]
  AUC0-t Brain: 3370 ng/mL/h
  AUC0-t Plasma: 3730 ng/mL/h
  AUC0-t Whole blood: 8150 ng/mL/h
  Blood/plasma: 2.2 Ratio
  Cmax Brain: 563 ng/mL
[4]; control group 5 animals
  Number of animals with visible signs of neurodegeneration: 2 animals
[4]; control group 24%
  Percent of animals with visible signs of neurodegeneration: 9%
